In ChEMBL document CHEMBL1201862, “PubChem BioAssay data set” (2004):
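Interpolation was linear, between the two tested concentrations surrounding the appropriate level; five concentrations were tested over 48 hours in 96-well plates. GI50 is the concentration that inhibits growth by half.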 Activity calls are given as the source filed them. Rule as the data show it: active = GI50 up to about 1.1 µM and inactive = higher.

How the values were obtained:
Assay in all cases: inhibition of tumour cell growth, NCI panel, 48 h
NCI-H23 = system: NCI-H23
CCRF-CEM = system: CCRF-CEM
LOX IMVI = system: LOX IMVI
HL-60 = system: HL-60
MOLT-4 = system: MOLT-4
SK-OV-3 = system: SK-OV-3
SNB-75 = system: SNB-75
IGROV-1 = system: IGROV-1
OVCAR-8 = system: OVCAR-8
ACHN = system: ACHN
SK-MEL-5 = system: SK-MEL-5
U-251 = system: U-251
HCT-15 = system: HCT-15
UACC-257 = system: UACC-257
SN12C = system: SN12C
RPMI-8226 = system: RPMI-8226

| Structure (SMILES) | GI50 (NCI-H23) | GI50 (CCRF-CEM) | GI50 (LOX IMVI) | GI50 (HL-60) | GI50 (MOLT-4) | GI50 (SK-OV-3) | GI50 (SNB-75) | GI50 (IGROV-1) | GI50 (OVCAR-8) | GI50 (ACHN) | GI50 (SK-MEL-5) | GI50 (U-251) | GI50 (HCT-15) | GI50 (UACC-257) | GI50 (SN12C) | GI50 (RPMI-8226) |
| --- | --- | --- | --- | --- | --- | --- | --- | --- | --- | --- | --- | --- | --- | --- | --- | --- |
| CC(=O)Nc1ccc(C2CC(c3ccc([N+](=O)[O-])cc3)=Nc3ccccc3S2)cc1 (stereo not drawn) | > 10 µM (inactive) | 13.8 µM (inactive) | 15.5 µM (inactive) | 21.3 µM (inactive) | 11.8 µM (inactive) | 40.6 µM (inactive) | 12.8 µM (inactive) | 25.8 µM (inactive) | 16.6 µM (inactive) | 16.6 µM (inactive) | > 10 µM (inactive) | 15.2 µM (inactive) | 17.1 µM | 15.7 µM (inactive) | 16.6 µM (inactive) |  |
| Cc1ccc2[nH]c(=O)c(C(C#N)c3ccccc3)nc2c1 (stereo not drawn) | 60.8 µM (inactive) | 32.7 µM (inactive) | 34.4 µM (inactive) |  | 20.9 µM (inactive) | 50.7 µM (inactive) | 30.5 µM (inactive) | 34.2 µM (inactive) |  | 50.9 µM (inactive) | 19 µM (inactive) | 24.3 µM (inactive) | 31.4 µM | 59.8 µM (inactive) | 49.5 µM (inactive) | 15.6 µM (inactive) |
| Cc1ccc(NC(=O)CC(=O)n2nc(C)c(/N=N/c3ccccc3C(=O)O)c2C)cc1 | > 100 µM (inactive) | > 100 µM (inactive) | > 100 µM (inactive) | > 100 µM (inactive) | > 100 µM (inactive) | > 100 µM (inactive) | 89.1 µM (inactive) | > 100 µM (inactive) | > 100 µM (inactive) |  | > 100 µM (inactive) | > 100 µM (inactive) | > 100 µM | > 100 µM (inactive) | > 100 µM (inactive) | > 100 µM (inactive) |
| Cc1[nH]c2ccccc2c1C1Cc2ccccc2N1C(=O)/C=C/C(=O)O (stereo not drawn) | > 100 µM (inactive) | > 100 µM (inactive) | > 100 µM (inactive) | > 100 µM (inactive) | > 100 µM (inactive) | > 100 µM (inactive) | > 100 µM (inactive) | > 100 µM (inactive) | > 100 µM (inactive) | > 100 µM (inactive) | > 100 µM (inactive) | > 100 µM (inactive) | 16.1 µM | > 100 µM (inactive) | > 100 µM (inactive) |  |
| O=C(CSc1nnc(-c2ccc(/N=C\c3ccc(Cl)cc3)cc2)o1)Nc1cccc(Cl)c1 | > 100 µM (inactive) | > 100 µM (inactive) | > 100 µM (inactive) | > 100 µM (inactive) | > 100 µM (inactive) | > 100 µM (inactive) | > 100 µM (inactive) |  | > 100 µM (inactive) | > 100 µM (inactive) | > 100 µM (inactive) | > 100 µM (inactive) | > 100 µM | > 100 µM (inactive) | > 100 µM (inactive) | 70 µM (inactive) |
| Cc1ccccc1N1C(=O)/C(=C/c2ccc(N(CCC#N)CCC#N)cc2)N=C1c1cc([N+](=O)[O-])ccc1Cl | > 100 µM (inactive) | 48.6 µM (inactive) |  | 35 µM (inactive) | 25.5 µM (inactive) | > 100 µM (inactive) | > 100 µM (inactive) | > 100 µM (inactive) |  | > 100 µM (inactive) | 38.5 µM (inactive) | 36 µM (inactive) | > 100 µM | > 100 µM (inactive) | > 100 µM (inactive) | 21 µM (inactive) |
| Cn1nc(-c2ccccc2)c(C(=O)/C=C/c2ccccc2)c(N2CCOCC2)c1=O | 16.4 µM (inactive) | 18.8 µM (inactive) | 21.6 µM (inactive) | 12.8 µM (inactive) | 13.2 µM (inactive) | 27.6 µM (inactive) |  | 23.4 µM (inactive) | 28.4 µM (inactive) | 20 µM (inactive) | 16 µM (inactive) | 15.4 µM (inactive) | 16.7 µM |  | 21.4 µM (inactive) | 14.6 µM (inactive) |
| CCOC(=O)NC(=O)c1cn(CCN2CCN(C(=O)NCCCCCCNC(=O)N3CCN(CCn4cc(C(=O)NC(=O)OCC)c(=O)n(CCN(CC)CC)c4=O)CC3)CC2)c(=O)n(CCC(CC)CC)c1=O | > 100 µM (inactive) |  | > 100 µM (inactive) | > 100 µM (inactive) |  | > 100 µM (inactive) | > 100 µM (inactive) | > 100 µM (inactive) | > 100 µM (inactive) | > 100 µM (inactive) | > 100 µM (inactive) | > 100 µM (inactive) | > 100 µM | > 100 µM (inactive) | > 100 µM (inactive) | > 100 µM (inactive) |
| O=c1c2cc(-c3ccccc3)sc2nc2sc(-c3ccccc3)nn12 | > 100 µM (inactive) | > 100 µM (inactive) | > 100 µM (inactive) | > 100 µM (inactive) | > 100 µM (inactive) | > 100 µM (inactive) | > 100 µM (inactive) | > 100 µM (inactive) | > 100 µM (inactive) |  | > 100 µM (inactive) | > 100 µM (inactive) | > 100 µM | > 100 µM (inactive) | > 100 µM (inactive) | > 100 µM (inactive) |
| CC(=O)c1cccc(NC(=O)C(=O)C(C2OC(=O)c3ccccc32)[N+](=O)[O-])c1 (stereo not drawn) | > 100 µM (inactive) | > 100 µM (inactive) | > 100 µM (inactive) | > 100 µM (inactive) | > 100 µM (inactive) | > 100 µM (inactive) | > 100 µM (inactive) | > 100 µM (inactive) |  | > 100 µM (inactive) | > 100 µM (inactive) | > 100 µM (inactive) | > 100 µM | > 100 µM (inactive) | > 100 µM (inactive) | > 100 µM (inactive) |
| O=C(O)C(=O)/C=C\c1ccc(Cl)cc1 | > 100 µM (inactive) | > 100 µM (inactive) | > 100 µM (inactive) | > 100 µM (inactive) | > 100 µM (inactive) | > 100 µM (inactive) | > 100 µM (inactive) | > 100 µM (inactive) | > 100 µM (inactive) | > 100 µM (inactive) | > 100 µM (inactive) | 66.4 µM (inactive) | > 100 µM | > 100 µM (inactive) | > 100 µM (inactive) | > 100 µM (inactive) |
| O=C1C2C3C=C4c5ccccc5N(c5ccccc5)C4(C2C(=O)N1c1ccc([N+](=O)[O-])cc1)[C@H]1C(=O)N(c2ccc([N+](=O)[O-])cc2)C(=O)[C@@H]31 (stereo partly drawn) | > 100 µM (inactive) | > 100 µM (inactive) | > 100 µM (inactive) | > 100 µM (inactive) | > 100 µM (inactive) | > 100 µM (inactive) | 11.1 µM (inactive) | > 100 µM (inactive) | > 100 µM (inactive) | > 100 µM (inactive) | > 100 µM (inactive) | > 100 µM (inactive) | > 100 µM | > 100 µM (inactive) | > 100 µM (inactive) | > 100 µM (inactive) |
| COC(=O)C1=C(O)c2cc(OC)c(OC)c(OC)c2C(c2ccc3c(c2)OCO3)[C@@H]1C(=O)OC (stereo partly drawn) | 7.03 µM (inactive) | 4.42 µM (inactive) | 4.43 µM (inactive) | 1.74 µM (inactive) | 4.69 µM (inactive) | 3.44 µM (inactive) | 4.07 µM (inactive) | 5.56 µM (inactive) | 5.37 µM (inactive) | 4.74 µM (inactive) |  | 3.66 µM (inactive) | 7.1 µM | 5.81 µM (inactive) | 3.68 µM (inactive) | 6.62 µM (inactive) |
